SMILES strings stand for the structures.

T1 sequence (Q13557 1-478 isoform Q13557-12): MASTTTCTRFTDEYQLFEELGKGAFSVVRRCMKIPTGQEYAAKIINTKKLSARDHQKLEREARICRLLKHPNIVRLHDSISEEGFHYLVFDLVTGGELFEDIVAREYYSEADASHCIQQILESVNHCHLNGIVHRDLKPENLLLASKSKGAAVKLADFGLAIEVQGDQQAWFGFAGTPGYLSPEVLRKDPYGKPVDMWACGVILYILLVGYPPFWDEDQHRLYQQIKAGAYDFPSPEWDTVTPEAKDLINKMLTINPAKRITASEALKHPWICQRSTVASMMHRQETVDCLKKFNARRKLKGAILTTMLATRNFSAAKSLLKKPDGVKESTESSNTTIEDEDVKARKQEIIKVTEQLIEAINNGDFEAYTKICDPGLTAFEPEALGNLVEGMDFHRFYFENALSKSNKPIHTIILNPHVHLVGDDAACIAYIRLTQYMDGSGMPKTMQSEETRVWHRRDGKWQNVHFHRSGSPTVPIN

This experiment addresses T1, Full-length, GST-tagged, human CaMKIIδ (Homo sapiens, UniProt Q13557).
T1 construct: Full-Length, Glutathione-S-Transferase(GST)-Tagged, Human CaMKIIδ was purchased from Carna Biosciences; purchased Carna Biosciences 02-111
The experiment is described as follows: CaMKIIδ binding assay (TR-FRET with BODIPY-labeled probe ligand). The settings on record: CaMKIIδ binding assay; activity class per Table 2. A digest of the protocol: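 TR-FRET probe-displacement binding: 0.5 nM GST-CaMKIIδ with 10 μg/mL calmodulin, 1 mM CaCl2, 0.21 nM Tb-anti-GST Ab and 300 nM BODIPY probe in HEPES pH 7.6 buffer. Eight-point 4-fold dilutions, 1 hr at room temperature. IC50 from logistic fit; 100% inhibition defined by 3 μM parent compound.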
As for `CC(Cn1cnnn1)Oc1cc(-c2cnc(Nc3cn(CC4(O)CCC(N5CCOCC5)CC4)nc3OCC(F)(F)F)nc2)ccc1Cl` [Example 912, cis-1-((4-((5-(3-(((S)-1-(1H-tetrazol-1-yl)propan-2-yl)oxy)-4-chlorophenyl)pyrimidin-2-yl)amino)-3-(2,2,2-trifluoroethoxy)-1H-pyrazol-1-yl)methyl)-4-morpholinocyclohexan-1-ol], the IC50 is < 10 nM.

In the case of `C[C@@H](Cn1cnnn1)Oc1cc(-c2cnc(Nc3cn(CC(O)CN4CCOCC4)nc3OCC(F)(F)F)nc2)ccc1Cl` (stereo partly drawn) [Example 913, 1-(4-((5-(3-(((S)-1-(1H-tetrazol-1-yl)propan-2-yl)oxy)-4-chlorophenyl)pyrimidin-2-yl)amino)-3-(2,2,2-trifluoroethoxy)-1H-pyrazol-1-yl)-3-morpholinopropan-2-ol], the IC50 was < 10 nM.

As for `C[C@@H](Cn1cnnn1)Oc1cc(-c2cnc(Nc3cn(C4(CO)CCC4)nc3OCC(F)(F)F)nc2)ccc1Cl` [Example 914, (S)-(1-(4-((5-(3-((1-(1H-tetrazol-1-yl)propan-2-yl)oxy)-4-chlorophenyl)pyrimidin-2-yl)amino)-3-(2,2,2-trifluoroethoxy)-1H-pyrazol-1-yl)cyclobutyl)methanol], the IC50 was < 10 nM.

As for `CCOC(=O)C1(n2cc(Nc3ncc(-c4ccc(Cl)c(O[C@@H](C)Cn5cnnn5)c4)cn3)c(OCC(F)(F)F)n2)CCC1` [Example 915, ethyl (S)-1-(4-((5-(3-((1-(1H-tetrazol-1-yl)propan-2-yl)oxy)-4-chlorophenyl)pyrimidin-2-yl)amino)-3-(2,2,2-trifluoroethoxy)-1H-pyrazol-1-yl)cyclobutane-1-carboxylate], the IC50 is < 10 nM.

Molecule `C[C@@H](Cn1cnnn1)Oc1cc(-c2cnc(Nc3cn(C4(C(=O)O)CCC4)nc3OCC(F)(F)F)nc2)ccc1Cl` [Example 916, (S)-1-(4-((5-(3-((1-(1H-tetrazol-1-yl)propan-2-yl)oxy)-4-chlorophenyl)pyrimidin-2-yl)amino)-3-(2,2,2-trifluoroethoxy)-1H-pyrazol-1-yl)cyclobutane-1-carboxylic acid] had an IC50 of 10 to 100 nM.

Take `C[C@@H](Cn1cnnn1)Oc1cc(-c2cnc(Nc3cn(C4(C(N)=O)CCC4)nc3OCC(F)(F)F)nc2)ccc1Cl` [Example 917, (S)-1-(4-((5-(3-((1-(1H-tetrazol-1-yl)propan-2-yl)oxy)-4-chlorophenyl)pyrimidin-2-yl)amino)-3-(2,2,2-trifluoroethoxy)-1H-pyrazol-1-yl)cyclobutane-1-carboxamide]: the IC50 is < 10 nM.

In the case of `CC(Cn1cnnn1)Oc1cc(-c2cnc(Nc3cn(C4CCC(O)(CN5CCOCC5)CC4)nc3C(F)(F)F)nc2)ccc1Cl` [Example 918, trans-4-(4-((5-(3-(((S)-1-(1H-tetrazol-1-yl)propan-2-yl)oxy)-4-chlorophenyl)pyrimidin-2-yl)amino)-3-(trifluoromethyl)-1H-pyrazol-1-yl)-1-(morpholinomethyl)cyclohexan-1-ol], the IC50 is < 10 nM.

In the case of `C[C@@H](Cn1cnnn1)Oc1cc(-c2cnc(Nc3cn(C4CC5(C4)CN(C(=O)OC(C)(C)C)C5)nc3C(F)(F)F)nc2)ccc1Cl` [Example 919, tert-butyl (S)-6-(4-((5-(3-((1-(1H-tetrazol-1-yl)propan-2-yl)oxy)-4-chlorophenyl)pyrimidin-2-yl)amino)-3-(trifluoromethyl)-1H-pyrazol-1-yl)-2-azaspiro[3.3]heptane-2-carboxylate], the IC50 is ≥ 100 nM.

For `C[C@@H](Cn1cnnn1)Oc1cc(-c2cnc(Nc3cn(C4CC5(CNC5)C4)nc3C(F)(F)F)nc2)ccc1Cl` [Example 920, (S)-5-(3-((1-(1H-tetrazol-1-yl)propan-2-yl)oxy)-4-chlorophenyl)-N-(1-(2-azaspiro[3.3]heptan-6-yl)-3-(trifluoromethyl)-1H-pyrazol-4-yl)pyrimidin-2-amine], the IC50 is < 10 nM.

For the origin of these results see patent US10543212B2, “Substituted amines for treating cardiac diseases” (Cardurion Pharmaceuticals, LLC, priority 2017, dated 2020).
